For the test, the target named is T1, mouse NPY-Y5 receptors (mNPY-Y5) (Mus musculus, UniProt O70342).
T1 construct: The full-length cDNA which contains the mouse NPY-Y5 (mNPY-Y5) receptor coding was amplified from mouse brain cDNA; expressed in transfected cells
T1 sequence (O70342 1-466): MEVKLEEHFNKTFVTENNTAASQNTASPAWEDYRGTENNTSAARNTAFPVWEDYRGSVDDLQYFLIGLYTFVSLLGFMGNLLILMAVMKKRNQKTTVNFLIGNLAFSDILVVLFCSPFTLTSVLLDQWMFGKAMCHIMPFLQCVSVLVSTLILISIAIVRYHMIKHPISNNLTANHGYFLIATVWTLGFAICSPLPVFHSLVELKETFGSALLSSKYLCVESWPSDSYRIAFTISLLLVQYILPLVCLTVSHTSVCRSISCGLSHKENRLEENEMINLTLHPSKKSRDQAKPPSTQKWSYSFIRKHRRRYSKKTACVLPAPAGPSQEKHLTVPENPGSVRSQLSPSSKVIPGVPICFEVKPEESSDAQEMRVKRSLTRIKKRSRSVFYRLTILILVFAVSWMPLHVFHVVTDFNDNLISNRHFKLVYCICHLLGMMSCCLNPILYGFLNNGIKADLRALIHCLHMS
The test can be described thus: Radioligand competition binding (125I-PYY) on membranes of HEK293 cells expressing recombinant mouse NPY-Y5 receptor. As to conditions: displacement of 100 pM 125I-labeled PYY, 1 h at 22° C., read-out: NPY5 IC50. The text has this:
The full-length cDNA which contains the mouse NPY-Y5 (mNPY-Y5) receptor coding was amplified from mouse brain cDNA using specific primers, which were custom-made on the basis of published sequences, and employing Pfu DNA polymerase (Stratagene). The amplification product was subcloned into a mammalian expression vector pcDNA3 using EcoRI and XhoI restriction sites. Positive clones were sequenced; one clone, which contained the published sequence, was selected for preparing stable cell clones.
Human embryonic kidney 293 (HEK293) cells were transfected with 10 μg of mNPY5 DNA using Lipofectamine reagent (Gibco BRL) in accordance with the manufacturer's instructions. Two days after the transfection, the geneticin selection (1 mg/ml) was initiated and several stable clones were isolated. One of the clones was used for further pharmacological characterization.
Human embryonic kidney cells (HEK293) which express recombinant mouse NPY-Y5 receptors (mNPY-Y5) were disrupted by being frozen/thawed three times in hypotonic Tris buffer (5 mM, pH 7.4, 1 mM MgCl2), after which they were homogenized and centrifuged at 72 000 G for 15 minutes. The precipitate was washed twice with Tris buffer (pH 7.4) containing 25 mM MgCl2, 250 mM sucrose, 0.1 mM phenylmethylsulfonyl fluoride and 0.1 mM 1,10-phenanthroline, then resuspended in the same buffer and stored in aliquots at −80° C. The protein was determined by the Lowry method using bovine serum albumin (BSA) as the standard.
The competition binding analysis was carried out in 250 μl of 25 mM Hepes buffer (pH 7.4, 2.5 mM CaCl2, 1 mM MgCl2, 1% bovine serum albumin and 0.01% sodium azide) which 5 μg of protein, 100 pM ^125I-labeled peptide YY (PYY) and 10 μl of a DMSO solution containing increasing quantities of DMSO solution containing unlabeled test compound. After a one-hour incubation at 22° C., the bound ligand was separated from the unbound ligand by means of filtration through a glass fiber filter. Nonspecific binding was determined in the presence of 1 μM unlabeled PYY. Specific binding is defined as the difference between total binding and nonspecific binding. An IC50 value is defined as the concentration of the antagonist which displaces 50% of the ^125I-labeled […]. This concentration is determined by linear regression analysis following logit/log transformation of the binding values.
For orientation: Displacement assays read how much labelled ligand stays bound in the presence of the test substance.

Results on 12 compounds are retold here after patent publication US7067549B2, “Pyrrolidone carboxamides” (Actelion Pharmaceuticals AG, priority 2001, dated 2006).

SMILES strings stand for the structures.

As a reminder, the IC50 is the point on the concentration scale where inhibition reaches its midpoint.

Regarding `CCN(c1ccc(NC(=O)C2CC(=O)N(c3cccc(OC)c3)C2)cc1)c1nc(C)cc(C)n1` (racemic) [rac. N-{4-[(4,6-Dimethylpyrimidin-2-yl)ethylamino]phenyl}-1-(3-methoxyphenyl)-5-oxopyrrolidine-3-carboxamide], the concentration for half-maximal inhibition (IC50) was found to be 44 nM.

For the compound `CCn1c2ccccc2c2cc(NC(=O)C3CC(=O)N(C4Cc5ccccc5C4)C3)ccc21` (racemic) [rac. N-(9-Ethyl-9H-carbazol-3-yl)-1-indan-2-yl-5-oxopyrrolidine-3-carboxamide], the 50% inhibitory concentration (IC50) was 32 nM. The figure for `Cc1ccc(N2CC(C(=O)Nc3ccc(N(C)c4nc(C)cc(C)n4)cc3)CC2=O)cc1` (racemic) [rac. N-{4-[(4,6-Dimethylpyrimidin-2-yl)methylamino]phenyl}-5-oxo-1-p-tolylpyrrolidine-3-carboxamide] is 22 nM; for `CCn1c2ccccc2c2cc(NC(=O)C3CC(=O)N(c4ccccc4C(C)C)C3)ccc21` (racemic) [rac. N-(9-Ethyl-9H-carbazol-3-yl)-1-(2-isopropylphenyl)-5-oxopyrrolidine-3-carboxamide] it is 10 nM; for `CCN(c1ccc(NC(=O)C2CC(=O)N(CCc3ccccn3)C2)cc1)c1nc(C)cc(C)n1` (racemic) [rac. N-{4-[(4,6-Dimethylpyrimidin-2-yl)ethylamino]phenyl}-5-oxo-1-(2-pyridin-2-ylethyl)pyrrolidine-3-carboxamide] it is 24 nM. The figure for `CCn1c2ccccc2c2cc(NC(=O)C3CC(=O)N(c4cccc(OC)c4)C3)ccc21` (racemic) [rac. N-(9-Ethyl-9H-carbazol-3-yl)-1-(3-methoxyphenyl)-5-oxopyrrolidine-3-carboxamide] is 20 nM; for `Cc1ccc(C)c(N2CC(C(=O)Nc3ccc(Nc4ccccc4)cc3)CC2=O)c1` (racemic) [rac. N-(4-Phenylaminophenyl)-1-(2,5-dimethylphenyl)-5-oxopyrrolidine-3-carboxamide] it is 30 nM; for `CCn1c2ccccc2c2cc(NC(=O)C3CC(=O)N(c4ccccc4)C3)ccc21` (racemic) [rac. N-(9-Ethyl-9H-carbazol-3-yl)-5-oxo-1-phenylpyrrolidine-3-carboxamide] it is 21 nM. With `CC(C)c1ccccc1N1CC(C(=O)Nc2ccc(Nc3ccccc3)cc2)CC1=O` (racemic) [rac. N-(4-Phenylaminophenyl)-1-(2-isopropylphenyl)-5-oxopyrrolidine-3-carboxamide], the IC50 worked out at 41 nM. The figure for `CCN(c1ccccc1)c1ccc(NC(=O)C2CC(=O)N(c3ccccc3C(C)C)C2)cc1` (racemic) [rac. N-[4-(Ethylphenylamino)phenyl]-1-(2-isopropylphenyl)-5-oxopyrrolidine-3-carboxamide] is 23 nM. The figure for `Cc1ccc(C)c(N2CC(C(=O)Nc3ccc(N(CC4CC4)c4ccccc4)cc3)CC2=O)c1` (racemic) [rac. N-[4-(Cyclopropylmethylphenylamino)phenyl]-1-(2,5-dimethylphenyl)-5-oxopyrrolidine-3-carboxamide] is 45 nM. With `CCn1c2ccccc2c2cc(NC(=O)C3CC(=O)N(Cc4ccccc4Cl)C3)ccc21` (racemic) [rac. N-(9-Ethyl-9H-carbazol-3-yl)-1-(2-chlorobenzyl)-5-oxopyrrolidine-3-carboxamide] the figure was 20 nM.
